Two compounds from patent US9505749B2, “Quinazolinone compounds and derivatives thereof” (AMGEN INC., priority 2012, dated 2016) can be followed below.

For one experiment, the target named is PARP2 (Homo sapiens (Human), UniProt Q9UGN5). Kind of experiment: PARP2 biochemical assay (BPS kit).
Experiment [1] has as its system total β-catenin in SW480 colorectal cells. Nature of the experiment: Total β-catenin MSD 96-well plate assay for SW480 cells. Conditions: Homo sapiens, SW480, read-out: SW480-Total beta-catenin (TBC) IC50 IP.
Experiment [2] concerns Axin2 accumulation in SW480 cells. Kind of experiment: Axin2 384 immunofluorescence assay. Conditions: Homo sapiens; SW480 cells, 24 hours; read-out: Axin2 384 IF EC50. In kind it is cell-based.
Experiment [3] concerns 8×TCF promoter-driven Firefly luciferase (Wnt reporter) in DLD-1 colorectal cells. Kind of experiment: DLD-1-STF assay, constitutively activated Wnt pathway reporter. Format: cell-based. Conditions: Homo sapiens. On the procedure: DLD-1 colorectal cells engineered with an 8×TCF promoter-driven Firefly (FF) luciferase gene (Wnt reporter) along with an EF1a promoter-driven Renilla (RN) luciferase gene (control reporter) were used to measure the potency of tankyrase compounds in the context of the constitutively activated Wnt pathway due to mutated APC in colorectal cancer cells. The engineered DLD-1 cells were plated (45 μL) at a density of 10,000 cells/well in black, clear-bottom, 96-well View plates (PerkinElmer) in normal growth medium (RPMI with 10% FBS with no antibiotics). Tankyrase inhibitors (5 μL) were transferred to cells from a three-fold serially diluted compound plate. A 10-point dilution series was tested starting at a concentration (10 μM final concentration in assay). Column 6 contained only DMSO and served as the “HI” control. A potent Tankyrase inhibitor was used at a final concentration of 10 uM in column 12 which served as the “LO” control. […] The Dual-Glo Reagents (Promega) were added as directed by manufacturer to assay the FF and RN luciferase activity. Luciferase activity was measures using the EnVision multilabel plate reader (PerkinElmer).

The target in another experiment is PARP1 (Homo sapiens (Human), UniProt P09874). Nature of the experiment: PARP1 biochemical assay (Trevigen kit). The text has this:
PARP1 biochemical assay was purchased as a kit from Trevigen (cat.#4676-096-K) and used per manufacturers recommendations.

Experiment [4] addresses 6×HIS-tankyrase 2 (946-1162) (Homo sapiens (Human), UniProt Q9H2K2). Kind of experiment: Tankyrase 2 biochemical assay (AlphaLisa, PARsylation). Conditions: 250 nM NAD; read-out: TNKS2 IC50. Background: Bead proximity is the source of the signal in Alpha formats.
Experiment [5] has as its target 6×HIS-tankyrase1 (1091-1325) (Homo sapiens (Human), UniProt O95271). Kind of experiment: Tankyrase 1 biochemical assay (AlphaLisa, PARsylation). Conditions: 400 nM NAD, 60 minutes at RT; read-out: TNKS1 IC50.

pEC50, pIC50: −log10 of the molar value. Read-outs that look alike come from different tables or passages of the source.

Chain of PARP1 (P09874 whole entry): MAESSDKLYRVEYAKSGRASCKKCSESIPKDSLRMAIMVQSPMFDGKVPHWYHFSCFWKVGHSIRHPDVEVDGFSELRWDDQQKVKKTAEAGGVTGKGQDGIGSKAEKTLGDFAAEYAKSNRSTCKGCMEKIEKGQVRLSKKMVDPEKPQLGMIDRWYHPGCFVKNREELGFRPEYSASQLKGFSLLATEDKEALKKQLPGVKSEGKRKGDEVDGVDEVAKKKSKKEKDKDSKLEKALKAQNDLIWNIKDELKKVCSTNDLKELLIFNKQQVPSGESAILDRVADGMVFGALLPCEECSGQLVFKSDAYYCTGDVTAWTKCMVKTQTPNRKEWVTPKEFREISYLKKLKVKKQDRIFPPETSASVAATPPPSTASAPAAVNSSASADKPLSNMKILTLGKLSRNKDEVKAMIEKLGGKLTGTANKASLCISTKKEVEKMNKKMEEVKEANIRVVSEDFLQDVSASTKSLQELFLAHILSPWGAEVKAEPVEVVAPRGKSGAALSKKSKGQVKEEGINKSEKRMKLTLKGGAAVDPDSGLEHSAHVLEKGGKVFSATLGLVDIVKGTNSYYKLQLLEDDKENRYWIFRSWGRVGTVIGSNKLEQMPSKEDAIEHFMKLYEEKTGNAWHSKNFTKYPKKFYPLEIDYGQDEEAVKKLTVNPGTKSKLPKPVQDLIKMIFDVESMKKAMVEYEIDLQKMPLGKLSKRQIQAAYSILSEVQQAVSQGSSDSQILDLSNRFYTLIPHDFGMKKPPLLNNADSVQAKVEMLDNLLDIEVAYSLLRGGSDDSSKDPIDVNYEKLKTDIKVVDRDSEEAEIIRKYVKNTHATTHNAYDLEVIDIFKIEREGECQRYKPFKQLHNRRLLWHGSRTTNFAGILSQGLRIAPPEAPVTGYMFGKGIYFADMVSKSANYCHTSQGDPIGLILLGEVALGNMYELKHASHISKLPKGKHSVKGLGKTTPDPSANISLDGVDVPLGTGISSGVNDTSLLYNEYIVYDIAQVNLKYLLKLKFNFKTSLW
Chain of PARP2 (Q9UGN5 whole entry): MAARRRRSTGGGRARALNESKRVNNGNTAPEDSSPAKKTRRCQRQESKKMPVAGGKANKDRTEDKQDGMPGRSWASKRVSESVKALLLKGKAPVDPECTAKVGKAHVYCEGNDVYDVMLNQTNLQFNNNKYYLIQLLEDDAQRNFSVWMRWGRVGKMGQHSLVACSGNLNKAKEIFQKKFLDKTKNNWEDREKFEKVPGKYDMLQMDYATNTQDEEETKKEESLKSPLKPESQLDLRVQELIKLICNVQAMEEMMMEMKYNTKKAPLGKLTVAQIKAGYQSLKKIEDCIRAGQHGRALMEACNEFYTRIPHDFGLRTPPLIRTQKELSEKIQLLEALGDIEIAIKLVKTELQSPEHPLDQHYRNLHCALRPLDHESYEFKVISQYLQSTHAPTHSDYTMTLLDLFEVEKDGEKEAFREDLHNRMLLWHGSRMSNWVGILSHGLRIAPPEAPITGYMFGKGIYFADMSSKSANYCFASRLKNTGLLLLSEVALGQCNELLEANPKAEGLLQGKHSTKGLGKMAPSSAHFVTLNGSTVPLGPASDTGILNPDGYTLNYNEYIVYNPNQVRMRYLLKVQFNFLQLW
Chain of 6×HIS-tankyrase1 (1091-1325) (O95271 1091-1325): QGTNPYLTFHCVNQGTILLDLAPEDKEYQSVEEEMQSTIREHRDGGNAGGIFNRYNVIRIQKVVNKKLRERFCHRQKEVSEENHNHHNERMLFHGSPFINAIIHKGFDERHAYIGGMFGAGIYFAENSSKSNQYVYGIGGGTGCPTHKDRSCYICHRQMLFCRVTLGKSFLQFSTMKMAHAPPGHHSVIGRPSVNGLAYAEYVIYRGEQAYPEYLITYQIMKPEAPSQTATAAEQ
Chain of 6×HIS-tankyrase 2 (946-1162) (Q9H2K2 946-1162): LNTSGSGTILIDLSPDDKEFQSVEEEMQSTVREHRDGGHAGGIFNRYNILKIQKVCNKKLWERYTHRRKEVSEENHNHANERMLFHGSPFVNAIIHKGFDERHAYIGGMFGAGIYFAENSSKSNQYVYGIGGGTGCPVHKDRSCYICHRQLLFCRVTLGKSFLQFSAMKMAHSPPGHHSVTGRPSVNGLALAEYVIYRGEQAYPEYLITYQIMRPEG

For the compound `O=C(CCSc1nc2c(c(=O)[nH]1)CCCC2)N[C@H]1CC[C@H](c2nnc(-c3ccccc3)o2)CC1` [Example 115, 3-((4-oxo-3,4,5,6,7,8-hexahydroquinazolin-2-yl)thio)-N-(trans-4-(5-phenyl-1,3,4-oxadiazol-2-yl)cyclohexyl)propanamide], the pIC50 on PARP2 was 5.95; in experiment [1], 7.96; in experiment [3] (DLD-1, read-out: DLD1-STF-FF/RL*100 IC50), 8.89; against PARP1 it was 5.41. Moreover, in experiment [2], the negative logarithm of the EC50 (pEC50) is 7.84.
As to `N#Cc1ccc(O[C@H]2CC[C@H](NC(=O)CCCc3nc4ccccc4c(=O)[nH]3)CC2)cc1Cl` [Example 64, N-(trans-4-(3-chloro-4-cyanophenoxy)cyclohexyl)-4-(4-oxo-3,4-dihydro-2-quinazolinyl)butanamide], the pIC50 at PARP2 was 6.54; in experiment [1], 7.58; in experiment [4], 9.28; in experiment [3] (DLD-1 cells, 40 to 48 hours, read-out: DLD1-STF-FF/RL*100 IC50), 8.90; against PARP1, 6.59; in experiment [5], 8.98. Besides, the pEC50 in experiment [2] is 7.22.

A word on the pEC50: it is the EC50 on a negative log10 scale, so that one unit is a factor of ten.
